Data taken from ChEMBL document CHEMBL5653631, “A Potent and Selective ULK1 Inhibitor Suppresses Autophagy and Sensitizes Cancer Cells to Nutrient Stress” (iScience, 2018).
Values belong to the compound of their own block, whether it stands above or below them.

Tests used:
[1] = biological target: T1, Mitogen-activated protein kinase 12 (Homo sapiens) (UniProt P53778); assay: Inhibition of human recombinant p38gamma at 500 nM related to control ULK1
T1 sequence (whole entry): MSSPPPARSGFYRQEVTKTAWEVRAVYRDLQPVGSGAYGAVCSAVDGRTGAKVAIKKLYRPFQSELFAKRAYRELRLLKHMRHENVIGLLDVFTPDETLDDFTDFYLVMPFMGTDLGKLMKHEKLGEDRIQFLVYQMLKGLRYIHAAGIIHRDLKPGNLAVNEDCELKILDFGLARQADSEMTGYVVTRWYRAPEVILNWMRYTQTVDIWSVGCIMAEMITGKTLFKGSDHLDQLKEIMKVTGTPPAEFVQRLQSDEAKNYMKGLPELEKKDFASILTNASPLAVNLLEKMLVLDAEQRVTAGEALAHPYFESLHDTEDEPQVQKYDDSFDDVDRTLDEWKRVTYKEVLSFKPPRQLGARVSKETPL

[2] = biological target: T2, Serine/threonine-protein kinase TAO2 (Homo sapiens) (UniProt Q9UL54); assay: Inhibition of human recombinant TAO2 at 500 nM related to control ULK1
T2 sequence (whole entry): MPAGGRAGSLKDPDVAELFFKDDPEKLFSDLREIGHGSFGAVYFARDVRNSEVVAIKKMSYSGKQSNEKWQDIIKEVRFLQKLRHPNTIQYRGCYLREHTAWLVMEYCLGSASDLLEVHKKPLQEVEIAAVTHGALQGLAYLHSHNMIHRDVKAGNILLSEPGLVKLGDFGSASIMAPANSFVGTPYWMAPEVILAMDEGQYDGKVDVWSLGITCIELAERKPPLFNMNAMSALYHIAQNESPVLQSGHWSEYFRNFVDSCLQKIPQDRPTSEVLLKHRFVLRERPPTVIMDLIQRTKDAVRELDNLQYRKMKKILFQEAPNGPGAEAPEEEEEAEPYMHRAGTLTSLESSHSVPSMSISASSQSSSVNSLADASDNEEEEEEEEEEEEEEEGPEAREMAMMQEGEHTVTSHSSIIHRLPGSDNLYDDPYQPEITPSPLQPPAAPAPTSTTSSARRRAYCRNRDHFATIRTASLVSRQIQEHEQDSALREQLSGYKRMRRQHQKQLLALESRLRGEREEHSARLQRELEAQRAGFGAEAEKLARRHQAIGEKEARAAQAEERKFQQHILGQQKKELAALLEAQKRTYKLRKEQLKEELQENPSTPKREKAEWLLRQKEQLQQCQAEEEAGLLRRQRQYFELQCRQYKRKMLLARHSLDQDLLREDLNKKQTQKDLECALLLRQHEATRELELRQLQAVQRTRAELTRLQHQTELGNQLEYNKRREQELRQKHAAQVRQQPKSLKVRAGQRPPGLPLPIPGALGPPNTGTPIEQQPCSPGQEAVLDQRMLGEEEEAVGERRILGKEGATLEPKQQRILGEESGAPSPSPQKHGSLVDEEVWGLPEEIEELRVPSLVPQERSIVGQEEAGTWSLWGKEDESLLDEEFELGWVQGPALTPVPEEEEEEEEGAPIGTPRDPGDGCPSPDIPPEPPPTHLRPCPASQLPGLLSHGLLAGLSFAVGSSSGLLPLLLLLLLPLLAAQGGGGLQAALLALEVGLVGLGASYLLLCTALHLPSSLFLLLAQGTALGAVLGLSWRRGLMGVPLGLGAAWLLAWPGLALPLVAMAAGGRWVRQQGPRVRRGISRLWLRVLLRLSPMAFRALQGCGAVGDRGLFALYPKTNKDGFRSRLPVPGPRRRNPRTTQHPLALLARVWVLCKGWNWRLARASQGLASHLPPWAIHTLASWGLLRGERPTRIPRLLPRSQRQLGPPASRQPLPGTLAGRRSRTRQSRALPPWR

[3] = biological target: SRSF protein kinase 1 (Homo sapiens) (UniProt Q96SB4); assay: Inhibition of human recombinant SRPK1 at 500 nM in presence of ATP by radiometric assay relative to control
[4] = biological target: Dual specificity tyrosine-phosphorylation-regulated kinase 1A (Homo sapiens) (UniProt Q13627); assay: Inhibition of human recombinant DYRK1A at 500 nM related to control ULK1
[5] = biological target: Serine/threonine-protein kinase 17A (Homo sapiens, UniProt Q9UEE5); assay: Inhibition of human recombinant DRAK1
[6] = biological target: Calcium/calmodulin-dependent protein kinase type 1G (Homo sapiens) (UniProt Q96NX5); assay: Inhibition of human recombinant CaMK1g at 40 nM related to control ULK1
[7] = biological target: T3, Dual specificity tyrosine-phosphorylation-regulated kinase 3 (Homo sapiens) (UniProt O43781); assay: Inhibition of human recombinant DYRK3 at 40 nM related to control ULK1
T3 sequence (whole entry): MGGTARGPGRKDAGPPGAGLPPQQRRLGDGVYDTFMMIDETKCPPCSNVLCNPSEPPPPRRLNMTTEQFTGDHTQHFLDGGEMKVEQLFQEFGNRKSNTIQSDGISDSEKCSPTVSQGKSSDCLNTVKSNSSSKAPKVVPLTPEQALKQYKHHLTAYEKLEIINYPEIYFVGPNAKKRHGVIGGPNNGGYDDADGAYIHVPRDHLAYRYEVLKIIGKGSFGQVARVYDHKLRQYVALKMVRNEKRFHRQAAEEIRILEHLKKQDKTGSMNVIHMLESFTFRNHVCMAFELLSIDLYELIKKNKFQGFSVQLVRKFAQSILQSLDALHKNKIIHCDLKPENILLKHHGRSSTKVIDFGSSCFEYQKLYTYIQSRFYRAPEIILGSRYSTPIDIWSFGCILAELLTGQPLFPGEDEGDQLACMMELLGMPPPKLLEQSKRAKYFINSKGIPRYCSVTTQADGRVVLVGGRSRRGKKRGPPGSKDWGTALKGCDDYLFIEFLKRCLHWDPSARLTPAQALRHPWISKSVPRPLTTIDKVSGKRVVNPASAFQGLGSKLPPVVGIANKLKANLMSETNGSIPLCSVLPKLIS

[8] = biological target: T4, Testis-specific serine/threonine-protein kinase 4 (Homo sapiens) (UniProt Q6SA08); assay: Inhibition of human recombinant TSSK4 at 15 nM in presence of ATP by radiometric assay relative to control
T4 sequence (whole entry): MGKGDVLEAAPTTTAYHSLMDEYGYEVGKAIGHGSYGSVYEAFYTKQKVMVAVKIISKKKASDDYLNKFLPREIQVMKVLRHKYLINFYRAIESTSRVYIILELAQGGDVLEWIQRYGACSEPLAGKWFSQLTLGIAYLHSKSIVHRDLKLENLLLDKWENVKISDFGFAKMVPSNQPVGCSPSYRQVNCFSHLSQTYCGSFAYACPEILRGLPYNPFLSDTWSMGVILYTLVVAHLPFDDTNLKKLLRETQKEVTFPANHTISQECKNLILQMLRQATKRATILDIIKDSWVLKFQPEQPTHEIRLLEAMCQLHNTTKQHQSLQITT

Serine/threonine-protein kinase 17A, sequence (Q9UEE5 whole entry): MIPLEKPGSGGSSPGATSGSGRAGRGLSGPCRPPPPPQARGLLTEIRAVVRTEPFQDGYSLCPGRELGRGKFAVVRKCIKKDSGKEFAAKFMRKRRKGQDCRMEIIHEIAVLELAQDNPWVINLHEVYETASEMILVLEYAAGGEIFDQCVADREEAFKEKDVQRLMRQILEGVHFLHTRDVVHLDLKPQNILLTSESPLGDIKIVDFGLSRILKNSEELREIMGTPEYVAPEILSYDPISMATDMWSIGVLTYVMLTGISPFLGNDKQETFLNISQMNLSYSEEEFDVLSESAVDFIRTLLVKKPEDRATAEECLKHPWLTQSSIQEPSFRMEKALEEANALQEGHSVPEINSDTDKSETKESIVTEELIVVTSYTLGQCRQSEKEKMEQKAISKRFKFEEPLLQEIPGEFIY
Calcium/calmodulin-dependent protein kinase type 1G (Homo sapiens), sequence (Q96NX5 whole entry): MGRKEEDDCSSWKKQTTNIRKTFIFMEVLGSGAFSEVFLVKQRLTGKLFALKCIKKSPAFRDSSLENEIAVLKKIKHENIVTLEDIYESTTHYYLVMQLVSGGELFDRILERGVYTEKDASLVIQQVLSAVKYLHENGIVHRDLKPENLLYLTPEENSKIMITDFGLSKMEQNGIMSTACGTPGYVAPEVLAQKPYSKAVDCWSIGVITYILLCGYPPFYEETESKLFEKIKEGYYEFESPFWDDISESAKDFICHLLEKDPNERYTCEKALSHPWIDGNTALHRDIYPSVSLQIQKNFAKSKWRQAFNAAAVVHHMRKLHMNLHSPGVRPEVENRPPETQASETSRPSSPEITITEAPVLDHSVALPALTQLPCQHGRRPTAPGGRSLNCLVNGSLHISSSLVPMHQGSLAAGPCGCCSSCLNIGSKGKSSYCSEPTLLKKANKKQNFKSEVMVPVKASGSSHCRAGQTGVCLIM
SRSF protein kinase 1 (Homo sapiens), sequence (Q96SB4 whole entry): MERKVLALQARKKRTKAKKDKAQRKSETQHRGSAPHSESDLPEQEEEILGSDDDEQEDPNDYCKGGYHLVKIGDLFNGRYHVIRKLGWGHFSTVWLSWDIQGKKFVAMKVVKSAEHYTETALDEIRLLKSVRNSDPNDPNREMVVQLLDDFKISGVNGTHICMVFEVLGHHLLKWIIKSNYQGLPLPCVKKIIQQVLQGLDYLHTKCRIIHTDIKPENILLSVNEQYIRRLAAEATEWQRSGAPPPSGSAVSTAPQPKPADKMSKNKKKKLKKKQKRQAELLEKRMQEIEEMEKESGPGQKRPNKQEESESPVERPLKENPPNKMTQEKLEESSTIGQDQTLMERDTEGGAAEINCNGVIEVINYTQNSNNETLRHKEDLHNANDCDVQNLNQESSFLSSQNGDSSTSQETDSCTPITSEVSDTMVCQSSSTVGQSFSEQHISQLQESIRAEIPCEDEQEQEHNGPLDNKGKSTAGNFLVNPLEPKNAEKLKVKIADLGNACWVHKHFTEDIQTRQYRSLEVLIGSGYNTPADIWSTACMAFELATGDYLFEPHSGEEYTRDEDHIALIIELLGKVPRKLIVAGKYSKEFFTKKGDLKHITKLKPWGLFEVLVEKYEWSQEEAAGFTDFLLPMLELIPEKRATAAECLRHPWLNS

fold change (FC) [1]: 0
fold change (FC) [2]: 0
inhibition [3]: 10%
fold change (FC) [4]: 0.01
SMILES: CNC(=O)c1ccccc1Oc1nc(Nc2cc(OC)c(OC)c(OC)c2)ncc1Br

IC50 [5]: 14 nM
fold change (FC) [6]: 0
fold change (FC) [7]: 0.41
SMILES: O=C(N[C@@H](C1CC1)C(F)(F)F)c1cc(-c2cnn3cc(-c4ccc(F)cc4)cnc23)cs1

inhibition [8]: 0%
SMILES: CC(C)[C@H](NC(=O)c1cc(-c2cnn3cc(-c4ccc(OCCN5CCCCC5)cc4)cnc23)cs1)C(F)(F)F
